Literature values, collected in patent US8822870B2, “Dielectric insulation medium” (ABB Technology Ltd., priority 2010, dated 2014).

SMILES: O=C(C(F)(F)C(F)(F)F)C(F)(C(F)(F)F)C(F)(F)F [C6-ketone, 1,1,1,2,4,4,5,5,5-Nonafluoro-2-(trifluoromethyl)pentan-3-one]
- LC50 4 hours: about 100,000 ppm
